These results are taken from US20110071129A1, “SPIRODIAMINE-DIARYL KETOXIME DERIVATIVE” (priority 2008, published 2011).

The target of the assay is T1, human MCH-1R (Homo sapiens, UniProt Q99705).
T1 construct: expressed in transfected cells; host or cells: CHO-K1 (American Type Culture Collection), vector pEF/myc/cyto; membranes used
Kind of assay: MCH binding inhibition test. Particulars: inhibition of specific [125I]MCH (50 pM) binding; membranes of MCH-1R expressing CHO-K1 cells; 25° C., one hour. The procedure:
A human MCH-1R encoding cDNA sequence [FEBS Letters, Vol. 398, 253 (1996); Biochimica et Biophisica Acta, Vol. 1401, 216 (1998)] was cloned to a plasmid vector pEF/myc/cyto (by Invitrogen Corporation). The obtained expression vector was transfected to host cells CHO-K1 (American Type Culture Collection) using Lipofectamine Plus Reagent (by Life Technology Inc.) to provide MCH-1R expression cells.
Membrane samples prepared from the MCH-1R expression cells were incubated with each test compound and 50 pM of [^125I]MCH (by NEN Co.), in an assay buffer (50 mM Tris buffer comprising 10 mM magnesium chloride, 2 mM ethylenediamine tetraacetate, 0.01% bacitracin and 0.2% bovine serum albumin; pH 7.4) at 25° C. for an hour, followed by filtration through a glass filter GF/C (by Wattman Co.). After washing the glass filter with 50 mM Tris buffer (pH 7.4) comprising 10 mM magnesium chloride, 2 mM ethylenediamine tetraacetate and 0.04% Tween-20, the radioactive activity on the glass filter was measured. The non-specific binding was measured in the presence of 1 μM human MCH, and the 50% inhibition concentration (IC50 value) of each test compound to the specific [^125I]MCH binding was determined.

T1 sequence (Q99705 whole entry): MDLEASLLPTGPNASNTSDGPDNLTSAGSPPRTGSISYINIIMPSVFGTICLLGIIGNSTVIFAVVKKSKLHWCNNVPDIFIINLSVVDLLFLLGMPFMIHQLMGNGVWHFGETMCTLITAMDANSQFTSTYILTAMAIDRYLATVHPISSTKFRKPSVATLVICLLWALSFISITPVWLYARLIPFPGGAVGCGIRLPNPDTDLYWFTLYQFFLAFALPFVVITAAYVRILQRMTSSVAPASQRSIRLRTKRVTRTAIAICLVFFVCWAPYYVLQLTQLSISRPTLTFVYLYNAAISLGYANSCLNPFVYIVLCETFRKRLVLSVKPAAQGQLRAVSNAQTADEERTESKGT

The compound `CCO/N=C(\c1ccc(F)c(F)c1)c1ccc(CN2CC3(CCN(c4ccc(F)nc4)C3)C2)cn1` [Example 1-10, (E)-(3,4-difluorophenyl)(5-{[6-(6-fluoro-3-pyridinyl)-2,6-diazaspiro[3.4]oct-2-yl]methyl}-2-pyridinyl)methanone O-ethyloxime] gave a half-maximal inhibitory concentration (IC50) of 7.6 nM. The compound `CCO/N=C(\c1ccc(F)c(F)c1)c1ccc(CN2CCC3(CCN(c4ccnnc4)C3)C2)cn1` (centres unmarked) [Example 2-3, (E)-(3,4-difluorophenyl)(5-{[7-(4-pyrazinyl)-2,7-diazaspiro[4.4]non-2-yl]methyl}-2-pyridinyl)methanone O-ethyloxime] had an IC50 of 3.2 nM. The result for `CCO/N=C(\c1ccc(F)c(F)c1)c1ccc(CN2CC3(C2)CN(c2ccnc(C)c2)C3)cn1` [Example 2-24, (E)-(3,4-difluorophenyl)(5-{[6-(2-methyl-4-pyridinyl)-2,6-diazaspiro[3.3]hept-2-yl]methyl}-2-pyridinyl)methanone O-ethyloxime] reads 2.4 nM; that for `CCO/N=C(\c1ccc(F)c(F)c1)c1ccc(CN2CC3(C2)CN(c2ccn4ccnc4c2)C3)cn1` [Example 2-40, (E)-(3,4-difluorophenyl){5-[(6-imidazo[1,2-a]pyridin-7-yl-2,6-diazaspiro[3.3]hept-2-yl)methyl]-2-pyridinyl}methanone O-ethyloxime], 0.9 nM. With `CCCc1cnc2cc(N3CC4(CN(Cc5ccc(/C(=N/OCC)c6ccc(F)c(F)c6)nc5)C4)C3)ccn12` [Example 2-44, (E)-(3,4-difluorophenyl)(5-{[6-(3-propylimidazo[1,2-a]pyridin-7-yl)-2,6-diazaspiro[3.3]hept-2-yl]methyl}-2-pyridinyl)methanone O-ethyloxime], the IC50 turned out to be 0.36 nM.
